Experimental data: patent US20260166039A1 (SCHRÖDINGER, INC., priority 2022, published 2026)
Read-outs that look alike come from different tables or passages of the source.

What was measured:
[1] = target: T1, Wee1 kinase domain (Homo sapiens, UniProt P30291); test: Wee1 Kinase Biochemical Assay (ADP-Glo); conditions: 15 uM ATP
T1 construct: Wee1 kinase domain was purchased from Carna (catalog #05-177); purchased Carna 05-177
In short: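 Poly(Lys,Tyr 4:1) phosphorylation by the kinase domain is followed as ADP output (ADP-Glo) after 4 h at 25 °C, with ATP at 15 uM. Values are percent inhibition between vehicle and full-inhibition controls.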

[2] = tested on: phosphorylation of Cdc2 Y15 (Wee1 substrate) in A427 cells; test: Phosphorylated Cdc2 MSD Electrochemiluminescence Assay; format: cell-based; conditions: Homo sapiens
In short: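 A427 cells (RPMI 1640, 10% FBS) treated 20 h after plating with 3-fold serial compound dilutions, in duplicate, 37 °C, 5% CO2; total incubation 6 h. Lysate Cdc2 pY15 read by MSD electrochemiluminescence sandwich immunoassay; % remaining signal normalised to DMSO (high) and reference Wee1 inhibitor (low) controls.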

[3] = class symbols, 1 nM Wee1 enzyme, 4 hours at 25° C.
[4] = A-427, class symbols, read-out: A427 pCDC2 MSD IC50

T1 sequence (P30291 299-569 limits assumed): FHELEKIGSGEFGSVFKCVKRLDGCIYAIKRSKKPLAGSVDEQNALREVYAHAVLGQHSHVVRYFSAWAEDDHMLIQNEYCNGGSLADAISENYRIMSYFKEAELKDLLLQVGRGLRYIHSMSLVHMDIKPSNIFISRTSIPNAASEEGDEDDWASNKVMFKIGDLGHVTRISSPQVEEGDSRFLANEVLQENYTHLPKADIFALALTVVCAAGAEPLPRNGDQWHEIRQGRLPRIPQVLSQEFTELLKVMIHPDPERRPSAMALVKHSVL

IC50 ([1]; Wee1 kinase domain, ADP-Glo) [nM] | IC50 ([2]; A-427, pCDC2 MSD) [nM] | IC50 [1, 3] [nM] | IC50 [2, 4] [nM] | Compound
< 10 | < 100 |  |  | CC1(C)C[C@H]2N(c3cccc(N=S(C)(C)=O)n3)c3nc(Nc4ccc(O[C@H]5CCNC5)cc4)ncc3[C@@]2(C)CO1 (single isomer, unassigned) [Example 153]
 |  | < 10 | 100 to 1000 | Cn1cc(Nc2ncc3c(n2)N(c2cccc(N=S(C)(C)=O)n2)[C@@H]2CC(C)(C)OC[C@]32C)nn1 (single isomer, unassigned) [Example 514]
 |  | < 10 | 100 to 1000 | CN=[S@](C)(=O)c1cccc(N2c3nc(Nc4ccc(N5CC6(CN(C)C6)C5)cc4)ncc3[C@@]3(C)COC(C)(C)C[C@@H]23)n1 [Example 770, (R)-methyl(methylimino)(6-((4bR,8aR)-4b,7,7-trimethyl-2-((4-(6-methyl-2,6-diazaspiro[3.3]heptan-2-yl)phenyl)amino)-4b,7,8,8a-tetrahydropyrano[3′,4′:4,5]pyrrolo[2,3-d]pyrimidin-9(5H)-yl)pyridin-2-yl)-16-sulfanone]
< 10 | 100 to 1000 |  |  | C[C@H]1COC(=O)N1c1cccc(N2c3nc(Nc4ccc(N5C[C@H]6C[C@@H]5CN6C)cc4)ncc3[C@@]3(C)COC(C)(C)C[C@@H]23)n1 (single isomer, unassigned) [Example 247]
 |  | < 10 | 100 to 1000 | CNCc1cccc(N2c3nc(Nc4ccc(N5CCOC[C@H]5C)cc4)ncc3[C@@]3(C)COC(C)(C)C[C@@H]23)n1 (single isomer, unassigned) [Example 473]
< 10 | < 100 |  |  | CN1CC[C@@](C)(c2ccc(Nc3ncc4c(n3)N(c3cccc(N=S(C)(C)=O)n3)[C@@H]3CC(C)(C)OC[C@]43C)cc2)C1 (single isomer, unassigned) [Example 169]
 |  | < 10 | 1000 to 10000 | CN1C[C@H]2C[C@@H]1CN2c1ccc(Nc2ncc3c(n2)N(c2ccn(C)n2)[C@@H]2CC(C)(C)OC[C@]32C)cc1 (single isomer, unassigned) [Example 520]
< 10 | 100 to 1000 |  |  | C[C@H]1COC(=O)N1c1cccc(N2c3nc(Nc4ccc(O[C@H]5CCN(C)C5)cc4)ncc3[C@@]3(C)COC(C)(C)C[C@@H]23)n1 (single isomer, unassigned) [Example 333]
< 10 | < 100 |  |  | Cc1cc(Nc2ncc3c(n2)N(c2cccc(N=S(C)(C)=O)n2)[C@@H]2CC(C)(C)OC[C@]32C)ccc1[C@H]1CCN(C)C1 (single isomer, unassigned) [Example 147]
< 10 | < 100 |  |  | CNCc1cccc(N2c3nc(Nc4ccc([C@@H]5CCOC5)cc4)ncc3[C@@]3(C)COC(C)(C)C[C@@H]23)n1 (single isomer, unassigned) [Example 38]
< 10 | 100 to 1000 |  |  | CNCc1cccc(N2c3nc(Nc4ccc([C@]5(C)CCN(C)C5=O)cc4)ncc3[C@@]3(C)COC(C)(C)C[C@@H]23)n1 (single isomer, unassigned) [Example 78]
 |  | < 10 | 100 to 1000 | CC1(C)C[C@H]2N(c3cccc(N4CCOC4=O)n3)c3nc(Nc4ccc([C@H]5CNCC5(F)F)cc4)ncc3[C@@]2(C)CO1 [Example 682, 3-(6-((4bR,8aR)-2-((4-((S)-4,4-difluoropyrrolidin-3-yl)phenyl)amino)-4b,7,7-trimethyl-4b,7,8,8a-tetrahydropyrano[3′,4′:4,5]pyrrolo[2,3-d]pyrimidin-9(5H)-yl)pyridin-2-yl)oxazolidin-2-one]
< 10 | 100 to 1000 |  |  | C[C@H]1COC(=O)N1c1cccc(N2c3nc(Nc4ccc(O[C@H]5CCNC5)nc4)ncc3[C@@]3(C)COC(C)(C)C[C@@H]23)n1 (single isomer, unassigned) [Example 285]
< 10 | 100 to 1000 |  |  | C[C@H]1COC(=O)N1c1cccc(N2c3nc(Nc4ccc(C5CNC5)cc4)ncc3[C@@]3(C)COC(C)(C)C[C@@H]23)n1 (single isomer, unassigned) [Example 310]
< 10 | 100 to 1000 |  |  | C[C@H]1COC(=O)N1c1cccc(N2c3nc(Nc4ccc(N5CCN(C)CC5=O)cc4)ncc3[C@@]3(C)COC(C)(C)C[C@@H]23)n1 (single isomer, unassigned) [Example 271]
 |  | < 10 | 100 to 1000 | C[C@@H]1COC(=O)N1c1cccc(N2c3nc(Nc4ccc(N5CCN(C)CC5)cc4)ncc3[C@@]3(C)COC(C)(C)C[C@@H]23)n1 (single isomer, unassigned) [Example 589]
 |  | < 10 | 100 to 1000 | C[C@H]1COC(=O)N1c1cccc(N2c3nc(Nc4ccc(N5CC6(CN(C)C6)C5)cc4)ncc3[C@@]3(C)COCC[C@@H]23)n1 (single isomer, unassigned) [Example 784]

IC50 ([1]; Wee1 kinase domain, ADP-Glo) [nM] | IC50 ([2]; A-427, pCDC2 MSD) [nM] | IC50 [1, 3] [nM] | IC50 [2, 4] [nM] | Compound
< 10 | 100 to 1000 |  |  | C[C@H]1COC(=O)N1c1cccc(N2c3nc(Nc4ccc(N5CCN(C)CC5)nc4)ncc3[C@@]3(C)COC(C)(C)C[C@@H]23)n1 (single isomer, unassigned) [Example 241]
< 10 | 100 to 1000 |  |  | CC1(C)C[C@H]2N(c3cccc(N=S(C)(C)=O)n3)c3nc(Nc4cnn(C5CCOCC5)c4)ncc3[C@@]2(C)CO1 (single isomer, unassigned) [Example 194]
< 10 | 100 to 1000 |  |  | CC1(C)C[C@H]2N(c3cccc(N=S(C)(C)=O)n3)c3nc(Nc4ccn([C@H]5CCOC5)c(=O)c4)ncc3[C@@]2(C)CO1 (single isomer, unassigned) [Example 376]
< 10 | 100 to 1000 |  |  | Cc1ncc(Nc2ncc3c(n2)N(c2cccc(N=S(C)(C)=O)n2)[C@@H]2CC(C)(C)OC[C@]32C)cn1 (single isomer, unassigned) [Example 373]
< 10 | 100 to 1000 |  |  | C[C@H]1COC(=O)N1c1cccc(N2c3nc(Nc4ccc(N5C[C@@H]6C[C@H]5CN6C)cc4)ncc3[C@@]3(C)COC(C)(C)C[C@@H]23)n1 (single isomer, unassigned) [Example 245]
 |  | < 10 | 100 to 1000 | CNCc1cccc(N2c3nc(Nc4cnn(C)c4)ncc3[C@@]3(C)COC(C)(C)C[C@@H]23)n1 (single isomer, unassigned) [Example 472]
< 10 | 100 to 1000 |  |  | CN1CCC(n2cc(Nc3ncc4c(n3)N(c3cccc(N=S(C)(C)=O)n3)[C@@H]3CC(C)(C)OC[C@]43C)cn2)C1 (stereo partly drawn) [Example 196, dimethyl((6-((4bR,8aR)-4b,7,7-trimethyl-2-((1-((R)-1-methylpyrrolidin-3-yl)-1H-pyrazol-4-yl)amino)-4b,7,8,8a-tetrahydropyrano[3′,4′:4,5]pyrrolo[2,3-d]pyrimidin-9(5H)-yl)pyridin-2-yl)imino)-16-sulfanone]
 |  | < 10 | 100 to 1000 | CN1CCC(n2ccc(Nc3ncc4c(n3)N(c3cccc(C(C)(C)O)n3)[C@@H]3CC(C)(C)OC[C@]43C)cc2=O)CC1 (single isomer, unassigned) [Example 810]
 |  | < 10 | 100 to 1000 | Cc1cc(Nc2ncc3c(n2)N(c2cccc(N4CCOC4=O)n2)[C@@H]2CC(C)(C)OC[C@]32C)ccc1N1C[C@H]2C[C@@H]1CN2C [Example 660, 3-(6-((4bR,8aR)-4b,7,7-trimethyl-2-((3-methyl-4-((1R,4R)-5-methyl-2,5-diazabicyclo[2.2.1]heptan-2-yl)phenyl)amino)-4b,7,8,8a-tetrahydropyrano[3′,4′:4,5]pyrrolo[2,3-d]pyrimidin-9(5H)-yl)pyridin-2-yl)oxazolidin-2-one]
< 10 | < 100 |  |  | CN1CC(c2ccc(Nc3ncc4c(n3)N(c3cccc(N=S(C)(C)=O)n3)[C@@H]3CC(C)(C)OC[C@]43C)cc2)C1 (single isomer, unassigned) [Example 165]
 |  | < 10 | 100 to 1000 | CN1C[C@@H]2C[C@H]1CN2c1ccc(Nc2ncc3c(n2)N(c2cccc(C(C)(C)O)n2)[C@@H]2CC(C)(C)OC[C@]32C)cc1F (single isomer, unassigned) [Example 431]
< 10 | 100 to 1000 |  |  | Cc1ccc(Nc2ncc3c(n2)N(c2cccc(N=S(C)(C)=O)n2)[C@@H]2CC(C)(C)OC[C@]32C)nn1 (single isomer, unassigned) [Example 364]
 |  | < 10 | 100 to 1000 | CNCc1ccc(Nc2ncc3c(n2)N(c2cccc(N4C(=O)CC[C@@H]4C)n2)[C@@H]2CC(C)(C)OC[C@]32C)cc1 (single isomer, unassigned) [Example 730]
 |  | < 10 | 100 to 1000 | CN1CCN(c2ccc(Nc3ncc4c(n3)N(c3ccccn3)[C@@H]3CC(C)(C)OC[C@]43C)cc2)CC1 (single isomer, unassigned) [Example 722]
< 10 | < 100 |  |  | C[C@H]1COC(=O)N1c1cccc(N2c3nc(Nc4ccc(OC5CCN(C)CC5)nc4)ncc3[C@@]3(C)COC(C)(C)C[C@@H]23)n1 (single isomer, unassigned) [Example 335]
< 10 | 100 to 1000 |  |  | CC1(C)C[C@H]2N(c3cccc(N=S(C)(C)=O)n3)c3nc(Nc4ccn(C5CC5)c(=O)c4)ncc3[C@@]2(C)CO1 (single isomer, unassigned) [Example 380]

Compound | IC50 ([1]; Wee1 kinase domain, ADP-Glo) [nM] | IC50 ([2]; A-427, pCDC2 MSD) [nM] | IC50 [1, 3] [nM] | IC50 [2, 4] [nM]
CN1[C@@H]2C[C@H]1CN(c1ccc(Nc3ncc4c(n3)N(c3cccc(N5CCOC5=O)n3)[C@@H]3CC(C)(C)OC[C@]43C)cc1)C2 [Example 700, 3-(6-((4bR,8aR)-4b,7,7-trimethyl-2-((4-((1R,5S)-6-methyl-3,6-diazabicyclo[3.1.1]heptan-3-yl)phenyl)amino)-4b,7,8,8a-tetrahydropyrano[3′,4′:4,5]pyrrolo[2,3-d]pyrimidin-9(5H)-yl)pyridin-2-yl)oxazolidin-2-one] |  |  | < 10 | 100 to 1000
